Each structure is given as a SMILES string.

Five compounds from patent publication US8748428B2, “Use of a PKC inhibitor” (Novartis AG, priority 2010, dated 2014) can be followed below.

What all share (type): cell-based
In assay [1] the test system is U2392 cells. Put plainly: Growth inhibition, CellTiter-Glo, 5 days. The following applies: 120 h; ABC DLBCL, TAK1 mutation; 5 days treatment; read-out: growth inhibitory IC50, U2392. An excerpt:
(§1) Two pharmacological PKC inhibitors: (i) the pan-PKC inhibitor, Sotrastaurin, also known as AEB071, and (ii) the PKCa/b-selective compound, 3-[2-chloro-7-[(dimethylamino)methyl]-1-naphthalenyl]-4-[7-[2-(2-methoxyethoxy)ethoxy]-1H-indol-3-yl]-1H-pyrrole-2,5-dione (referred to herein as “Compound B”), were used to evaluate the proliferation of several diffuse large B cell lymphoma (DLBCL) lines. The IKKb-selective inhibitors N-(6-chloro-7-methoxy-9H-β-carbolin-8-yl)-2-methylnicotinamide (referred to herein as “MLN120B”) and N-[(2R,6R)-2,6-dimethyl-4-piperidinyl]-4-(7-fluoro-1H-indol-3-yl)-2-pyrimidinamine (referred to herein as “Compound A”) were used as control compounds. ABC DLBCL cell lines (OCI-LY3, OCI-LY10, HBL1, U2932, TMD8, Su-DHL2) and GC DLBCL cell lines (Su-DHL4, DB, K-422) were treated for 5 days with PKC inhibitors (A) Sotrastaurin (AEB071) or (B) Compound B; IKKb inhibitors (C) MLN120B or (D) Compound A. Cells were plated in 96-well plates (Corning, #3358) at 5000 cells/well in 100 μL and treated with DMSO or inhibitors at concentrations ranging from 160 nM to 20 μM (2-fold dilutions). Following 5 days of treatment, cells were lysed with CellTiter-Glo® Luminescent Cell Viability Assay reagent (Promega, G7573), lysates were transferred to opaque 96-well plates (Corning, #3971), and luminescence signal was read using the Envision. Percent growth was calculated relative to median DMSO signal.
(§2) While all ABC DLBCL cell lines were sensitive to IKK inhibitors, their response to PKC inhibitors varied strongly (Table 1A below). The cell lines that are insensitive to PKC inhibitors, OCI-Ly3 and Su-DHL2, have reported mutations in CARD11 and A20, respectively. […] The fact that these oncogenic lesions are thought to function downstream of PKCβ in CBM-NFkB signaling provides a molecular rationale for their insensitivity. […] See, Compagno, M., et al, “Mutations of multiple genes cause deregulation of NF-κB in diffuse large B-cell lymphoma” Nature, 459 (7247), 717-722 (2009)). […] Tables 1A and 1B below show the growth inhibitory IC50 values, which were determined by measuring ATP concentration (Cell Titer Glo), for the indicated compounds in the indicated cell lines. IC50 values were determined as the concentration of compound that leads to 50% reduction of cell growth.

For assay [2], the system named is K422 cells. The experiment in a line: Growth inhibition, CellTiter-Glo, 5 days. The following applies: 120 h; GC DLBCL, no NFkB mutation; 5 days treatment; read-out: growth inhibitory IC50, K422.
From the text: as §1, §2
On the technique in general: Cellular ATP, detected with luciferase, serves as a proxy for viable cell number.

Assay [3] concerns HBL1 cells. The experiment in a line: Growth inhibition, CellTiter-Glo, 5 days. The following applies: HBL1, 120 h; ABC DLBCL, CD79B mutation; 5 days treatment; read-out: growth inhibitory IC50, HBL1.
From the text: as §1, §2

Assay [4] has as its system OCI-Ly10 cells. Put plainly: Growth inhibition, CellTiter-Glo, 5 days. As to conditions: Homo sapiens, OCI-Ly10, 120 h; ABC DLBCL, CD79A mutation; 5 days treatment; read-out: growth inhibitory IC50, OCI-Ly10.
From the text: as §1, §2

The test system of assay [5] is TMD8 cells. Put plainly: Growth inhibition, CellTiter-Glo, 5 days. The following applies: Homo sapiens, TMD8, 120 h; ABC DLBCL, CD79B mutation; 5 days treatment; read-out: growth inhibitory IC50, TMD8.
From the text: as §1, §2

The test system of assay [6] is OCI-Ly3 cells. The experiment in a line: Growth inhibition, CellTiter-Glo, 5 days. As to conditions: Homo sapiens, OCI-Ly3, 120 h; ABC DLBCL, CARD11 mutation; 5 days treatment; read-out: growth inhibitory IC50, OCI-Ly3.
From the text: as §1, §2

In assay [7] the test system is Su-DHL2 cells. The experiment in a line: Growth inhibition, CellTiter-Glo, 5 days. The following applies: Homo sapiens, SU-DHL-2, 120 h; ABC DLBCL, A20 mutation; 5 days treatment; read-out: growth inhibitory IC50, Su-DHL2.
From the text: as §1, §2

Assay [8] has as its system DB cells. The experiment in a line: Growth inhibition, CellTiter-Glo, 5 days. As to conditions: Homo sapiens, 120 h, GC DLBCL, no NFkB mutation, 5 days treatment, read-out: growth inhibitory IC50, DB.
From the text: as §1, §2

In assay [9] the test system is Su-DHL4 cells. The experiment in a line: Growth inhibition, CellTiter-Glo, 5 days. The following applies: Homo sapiens, SU-DHL-4, 120 h; GC DLBCL, no NFkB mutation; 5 days treatment; read-out: growth inhibitory IC50, Su-DHL4.
From the text: as §1, §2

Assay [10] relates to IL-6 mRNA in TMD8 cells. The experiment in a line: IL-6 mRNA expression (Taqman). As to conditions: TMD8, 24 hours, 10 nM to 10 uM. The source says: Constitutive activation of the NFkB pathway is a molecular hallmark of ABC DLBCL cells and is required for their proliferation and survival. See Davis, R. E., et al., J Exp Med, 194(12), 1861-1874 (2001). To confirm that the growth inhibitory effect in response to PKC inhibition is mediated through modulation of NFkB pathway signaling, the expression of NFkB pathway genes were monitored in response to AEB071 treatment. The NFkB-pathway-induced cytokine IL-6 was used as a marker to study NFkB pathway modulation by PKC inhibitors. See Lam, L. T., et al., Blood 111(7):3701-13 (2008). To measure IL-6 mRNA levels, cells were plated in […] plates in 2 ml media at 2M/ml, then treated with DMSO or inhibitors from 10 nM to 10 uM (4-fold dilutions) for 24 hours. Total RNA was harvested using the RNeasy kit (Qiagen, #74104) and cDNA was made from 1 μg total RNA using the High Capacity cDNA kit (ABI, #4368814), according to manufacturer's protocols. Taqman probes (ABI: IL-6, Hs00174131_m1) were used with Gene Expression Master Mix (ABI, 4369510) to determine the amount of mRNA expression for IL-6 relative to an endogenous control gene (ABI: TBP, 4326322E) and the DMSO control using the delta-delta Ct method.
In general terms: In qPCR the cycle at which signal appears reflects the starting amount.

For assay [11], the system named is IL-6 secretion in HBL1 cells. Put plainly: IL-6 secretion (Quantikine ELISA). As to conditions: HBL1, ELISA of supernatant, 48 hours. The method, then: (§3) The fact that IL-6 is secreted from cells allowed for monitoring of IL-6 levels in cell supernatants. IL-6 secretion was determined by Quantikine ELISA using supernatant from treated cells. Cells were washed and plated at 100,000 cells/well in 100 ul in fresh media in round-bottom 96-well plates (Corning, #3358). The cells were then treated with DMSO or inhibitors at concentrations ranging from 80 nM to 10 uM (2-fold dilutions), and incubated at 37° C. for 48 hours. Then the conditioned media was transferred to v-bottom 96-well plates (Nunc, #12565436). The level of IL-6 secretion was determined by the Quantkine colorimetric ELISA kit from (R & D Systems, #D6050), according to the manufacturer's instructions. For the IL-6 ELISA, the conditioned media was diluted 1:2 with fresh media (except ion: the HBL1 conditioned media was not diluted, it was used 1:1). In FIG. 2, IL-6 secretion for each dose is expressed as a percentage of IL-6 secretion from cells treated with DMSO.
Background: An ELISA detects its analyte on a solid surface through an enzyme-linked reagent.

Assay [12] relates to IL-6 secretion in TMD8 cells. Put plainly: IL-6 secretion (Quantikine ELISA). The following applies: Homo sapiens; TMD8, ELISA of supernatant, 48 hours. The method, then: as §3

Consider `C[C@@H]1CC(Nc2nccc(-c3c[nH]c4c(F)cccc34)n2)C[C@@H](C)N1` (stereo partly drawn) [Compound A, N-[(2R,6R)-2,6-dimethyl-4-piperidinyl]-4-(7-fluoro-1H-indol-3-yl)-2-pyrimidinamine], for which the IC50 – broadly, the concentration that gives 50% inhibition – came to 2.5 µM in [1]; 10 µM in assay [2]; 2.5 µM in assay [3]; 0.3 µM in [4]; 0.2 µM in assay [5]; 0.4 µM in [6]. In addition, the figures for the IC50 in assay [7], in assay [8] and in [9] were 15 µM, more than 20 µM and 10 µM, respectively.

As for `O=C1NC(=O)C(c2c[nH]c3ccccc23)=C1c1nc(N2CCNCC2)nc2ccccc12` [Compound D, 3-(1H-Indol-3-yl)-4-[2-(piperazin-1-yl)quinazolin-4-yl]pyrrole-2,5-dione], the IC50 in assay [1] is 3 µM; in assay [3] it was 0.2 µM; in assay [5] it was 0.2 µM; in assay [6], 15 µM; in [7] it was more than 20 µM; in assay [8] it was more than 20 µM. Moreover, the IC50 in assay [9] amounted to 15 µM.

Regarding `CN(C)C[C@@H]1CCn2cc(c3ccccc32)C2=C(C(=O)NC2=O)c2cn(c3ccccc23)CCO1` [LY333531, (9S)-9-[(dimethylamino)methyl]-6,7,10,11-tetrahydro-9H,18H-5, 21:12,17-dimethenodibenzo[e,k]pyrrolo[3,4-h][1,4,13]oxadiazacyclohexadecine-18,20(19H)-dione], the “IL-6 mRNA expression” value in [10] is “reduced IL-6 mRNA expression in a dose-dependent manner”.

In the case of `COc1c(Cl)cc2c([nH]c3cnccc32)c1NC(=O)c1cccnc1C` [MLN120B, N-(6-chloro-7-methoxy-9H-β-carbolin-8-yl)-2-methylnicotinamide], the IC50 was 10 µM in [1]; more than 40 µM in [2]; 10 µM in assay [3]; 10 µM in assay [4]; 10 µM in assay [5]; 12 µM in [6]. The IC50 is 10 µM in [7], more than 40 µM in [8] and more than 20 µM in [9].

Regarding `COCCOCCOc1cccc2c(C3=C(c4c(Cl)ccc5ccc(CN(C)C)cc45)C(=O)NC3=O)c[nH]c12` [Compound B, 3-[2-chloro-7-[(dimethylamino)methyl]-1-naphthalenyl]-4-[7-[2-(2-methoxyethoxy)ethoxy]-1H-indol-3-yl]-1H-Pyrrole-2,5-dione], the IC50 in [11] is less than 0.2 µM; in assay [12], less than 0.2 µM; in assay [1], 10 µM; in assay [2], 11 µM; in [3], 0.5 µM; in assay [4], 0.5 µM. In addition, the IC50 in [5] was 0.2 µM; in [6], more than 20 µM; in [7], 15 µM; in [8] it was more than 20 µM; in [9] it was 7.5 µM. Further, the “IL-6 mRNA expression” value in assay [10] is on record as “reduced IL-6 mRNA expression in a dose-dependent manner”.
